Data: ChEMBL document CHEMBL1128349 (J Med Chem, 1995)

What was measured:
[1] = target: T1, Alpha-2A adrenergic receptor (Homo sapiens, UniProt P08913); assay: Ability to displace [3H]rauwolscine from cloned human Alpha-2A adrenergic receptor
T1 sequence (P08913 whole entry): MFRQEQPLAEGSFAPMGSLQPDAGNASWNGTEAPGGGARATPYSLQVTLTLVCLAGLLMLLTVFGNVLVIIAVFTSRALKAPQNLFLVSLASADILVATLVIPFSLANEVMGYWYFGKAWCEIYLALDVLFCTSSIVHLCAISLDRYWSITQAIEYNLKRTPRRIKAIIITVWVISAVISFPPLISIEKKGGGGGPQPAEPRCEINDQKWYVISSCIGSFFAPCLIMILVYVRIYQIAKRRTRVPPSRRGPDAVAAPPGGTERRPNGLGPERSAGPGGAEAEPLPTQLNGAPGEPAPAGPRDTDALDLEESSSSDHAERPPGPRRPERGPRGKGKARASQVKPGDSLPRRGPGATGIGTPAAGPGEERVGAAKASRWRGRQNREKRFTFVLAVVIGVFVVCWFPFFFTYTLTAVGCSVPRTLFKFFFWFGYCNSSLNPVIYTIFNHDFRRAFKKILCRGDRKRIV

[2] = target: Voltage-gated L-type calcium channel (Rattus norvegicus, UniProt P22002+Q02485+P27732); assay: Displacement of [3H]nitrendipine from rat brain L-type [Ca2+] channel; type: tissue-based
[3] = target: T2, Alpha-1B adrenergic receptor (Homo sapiens, UniProt P35368); assay: Ability to displace [3H]prazosin from cloned human Alpha-1B adrenergic receptor
T2 sequence (P35368 whole entry): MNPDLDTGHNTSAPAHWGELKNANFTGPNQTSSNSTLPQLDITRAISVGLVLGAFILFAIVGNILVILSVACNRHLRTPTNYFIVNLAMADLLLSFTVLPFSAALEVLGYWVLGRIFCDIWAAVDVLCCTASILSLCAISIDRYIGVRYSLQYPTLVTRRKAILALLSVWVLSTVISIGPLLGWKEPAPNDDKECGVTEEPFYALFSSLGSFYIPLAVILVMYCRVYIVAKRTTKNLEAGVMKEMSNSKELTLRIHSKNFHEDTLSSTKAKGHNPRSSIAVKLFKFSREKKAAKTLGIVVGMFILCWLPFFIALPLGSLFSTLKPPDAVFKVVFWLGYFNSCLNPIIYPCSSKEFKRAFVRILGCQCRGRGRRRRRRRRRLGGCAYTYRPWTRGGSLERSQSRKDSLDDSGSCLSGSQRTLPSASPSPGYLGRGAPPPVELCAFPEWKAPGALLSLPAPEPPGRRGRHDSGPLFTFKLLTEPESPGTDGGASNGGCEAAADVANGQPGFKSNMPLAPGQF

[4] = target: T3, Alpha-1A adrenergic receptor (Homo sapiens, UniProt P35348)
T3 sequence (P35348 whole entry): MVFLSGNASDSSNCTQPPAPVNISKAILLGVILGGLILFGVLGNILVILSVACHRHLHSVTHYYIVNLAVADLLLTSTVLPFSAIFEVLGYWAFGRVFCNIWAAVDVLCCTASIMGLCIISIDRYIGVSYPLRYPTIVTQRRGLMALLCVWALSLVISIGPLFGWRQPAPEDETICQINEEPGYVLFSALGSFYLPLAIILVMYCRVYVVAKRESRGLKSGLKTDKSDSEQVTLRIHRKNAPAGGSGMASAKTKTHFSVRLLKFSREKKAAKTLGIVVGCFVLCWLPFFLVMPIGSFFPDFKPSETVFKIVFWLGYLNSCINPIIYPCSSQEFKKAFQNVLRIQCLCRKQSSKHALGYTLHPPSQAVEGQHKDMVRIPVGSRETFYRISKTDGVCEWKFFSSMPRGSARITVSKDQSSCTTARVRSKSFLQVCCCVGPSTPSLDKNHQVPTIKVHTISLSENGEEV

[5] = target: T4, Alpha-1D adrenergic receptor (Homo sapiens, UniProt P25100); assay: Ability to displace [3H]prazosin from cloned human Alpha-1D adrenergic receptor
T4 sequence (P25100 whole entry): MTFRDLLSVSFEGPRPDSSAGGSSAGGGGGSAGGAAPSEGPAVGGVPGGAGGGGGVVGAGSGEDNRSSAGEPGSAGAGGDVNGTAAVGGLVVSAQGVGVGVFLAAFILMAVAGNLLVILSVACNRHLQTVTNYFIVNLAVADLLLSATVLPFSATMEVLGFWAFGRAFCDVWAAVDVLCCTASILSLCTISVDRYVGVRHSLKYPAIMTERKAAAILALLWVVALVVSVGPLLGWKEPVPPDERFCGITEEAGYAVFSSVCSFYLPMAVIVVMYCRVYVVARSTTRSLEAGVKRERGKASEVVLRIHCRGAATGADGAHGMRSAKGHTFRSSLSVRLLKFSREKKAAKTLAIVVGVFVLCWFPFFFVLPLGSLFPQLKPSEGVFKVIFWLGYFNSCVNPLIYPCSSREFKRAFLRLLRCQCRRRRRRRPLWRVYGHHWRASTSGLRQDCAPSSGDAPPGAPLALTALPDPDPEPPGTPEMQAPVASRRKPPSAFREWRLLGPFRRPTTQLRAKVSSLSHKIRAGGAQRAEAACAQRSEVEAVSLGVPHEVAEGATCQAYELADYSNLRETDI

[6] = target: T5, Alpha-2B adrenergic receptor (Homo sapiens, UniProt P18089)
T5 sequence (P18089 whole entry): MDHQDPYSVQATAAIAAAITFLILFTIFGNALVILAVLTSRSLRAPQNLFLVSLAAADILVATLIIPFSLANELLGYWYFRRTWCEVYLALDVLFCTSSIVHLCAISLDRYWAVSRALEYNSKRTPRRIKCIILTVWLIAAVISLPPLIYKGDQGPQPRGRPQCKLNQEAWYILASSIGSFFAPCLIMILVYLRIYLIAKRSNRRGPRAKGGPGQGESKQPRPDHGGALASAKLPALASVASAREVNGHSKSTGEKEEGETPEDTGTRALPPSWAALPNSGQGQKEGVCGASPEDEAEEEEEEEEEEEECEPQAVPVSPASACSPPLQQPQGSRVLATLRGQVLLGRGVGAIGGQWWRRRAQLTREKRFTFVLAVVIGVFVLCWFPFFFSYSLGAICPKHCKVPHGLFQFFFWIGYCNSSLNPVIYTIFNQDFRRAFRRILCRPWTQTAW

[7] = target: T6, Alpha-2C adrenergic receptor (Homo sapiens, UniProt P18825); assay: Ability to displace [3H]rauwolscine from cloned human Alpha-2C adrenergic receptor
T6 sequence (P18825 whole entry): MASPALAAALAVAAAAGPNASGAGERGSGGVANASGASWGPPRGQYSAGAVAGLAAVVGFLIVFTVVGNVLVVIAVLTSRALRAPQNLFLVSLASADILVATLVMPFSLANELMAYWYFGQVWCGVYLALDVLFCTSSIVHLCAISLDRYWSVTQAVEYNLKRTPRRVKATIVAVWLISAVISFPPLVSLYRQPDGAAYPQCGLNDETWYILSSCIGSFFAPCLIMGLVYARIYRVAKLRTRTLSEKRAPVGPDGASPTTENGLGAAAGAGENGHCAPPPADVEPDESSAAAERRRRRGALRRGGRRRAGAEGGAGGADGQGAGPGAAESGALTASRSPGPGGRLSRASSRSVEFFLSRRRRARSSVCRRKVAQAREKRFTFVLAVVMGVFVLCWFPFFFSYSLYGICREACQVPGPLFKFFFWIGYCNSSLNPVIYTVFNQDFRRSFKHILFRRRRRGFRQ

Structure (SMILES)	Ki [1] [nM]	Ki [2] [nM]	Ki [3] [nM]	Ki [4] [nM]	Ki [5] [nM]	Ki [6] [nM]	Ki [7] [nM]
CO/C(O)=C1\C(C)=NC(C)=C(C(=O)NCCCN2CCC(c3ccccc3)(c3ccccc3)CC2)[C@H]1c1ccc([N+](=O)[O-])cc1	[…]	670					
CO/C(O)=C1\C(C)=NC(C)=C(C(=O)OCCCN2CCC(c3ccccc3)(c3ccccc3)CC2)C1c1ccc([N+](=O)[O-])cc1 (configuration not stated)	800	250	50	0.32	210	570	300
COc1cc2nc(N3CCN(C(=O)c4ccco4)CC3)nc(N)c2cc1OC [PRAZOSIN]		> 10000					
COc1cc2nc(N3CCN(C(=O)C4CCCO4)CC3)nc(N)c2cc1OC (configuration not stated) [TERAZOSIN]	550				3.7		
